Test results as given in patent publication US11814407B2, “Multiple coupling and oxidation method” (Roche Innovation Center Copenhagen A/S, priority 2017, dated 2023).
“Also recorded” adds a separate entry of the source.

Columns and labels:
[1] = Solubility of oxazaphospholidine phosphoramidite monomers in solvent, visual examination; assay type: physicochemical; conditions: for Solubility over 24 hours in MeCN with addition of pyridine: MeCN + 2.5% pyridine; for Solubility after 24 hours in MeCN: MeCN alone
Description: To a 1.5 mL vial was added 0.013 mmol of amidite after which the solid material was dissolved in 0.13 mL of solvent. Hereafter, the vial was capped, vortexed, and finally left at room temperature for 24 hours. Then, the dissolved material was visually examined regarding the solubility (FIG. 1). If the solution appeared cloudy or otherwise non-homogenous the solubility was set to “no”. If the solution appeared completely homogenous the solubility was set to “yes” (examination repeated after 24 hours).
Solubility of the following monomers was determined as per example 7.

[2] = Stability of amidite solutions by HPLC-MS (UV 254 nm, normalised to 0 hours); assay type: physicochemical
Description: Stability Determination Method: To complete the analysis the stability of the amidite was investigated using an Agilent 1100 series HPLC-MS with a gradient from 80% A (1% NH4OH in H2O) to 100% B (20% A in MeCN) and a Waters Xterra MS C18 2.1×100 mm column. The mass and UV peak of the mother compound was identified at 0 hours and at 24 hours. Hereafter, the relative stability compared to other by-products was reported by integrating the UV chromatogram (254 nm) and normalizing the area to the chromatogram recorded at 0 hours (FIG. 2).
To a 1.5 mL vial was added 0.013 mmol of amidite after which the solid material was dissolved in 0.13 mL of solvent (with and without Et3N, approximately 5-10 eq). Hereafter, the vial was capped, vortexed, and finally left at room temperature for 24 hours. To investigate the stability of the amidite an Agilent 1100 series HPLC-MS with a gradient from 80% A (1% NH4OH in H2O) to 100% B (20% A in MeCN) and a Waters Xterra MS C18 2.1×100 mm column was used. The mass and UV peak of the mother compound was identified at 0 hours and at 24 hours. Hereafter, the relative stability compared to other by-products was reported. This was again repeated after 48 hours.

In the case of `COc1ccc(C(OCC2OC(n3cnc4c(NC(=O)c5ccccc5)ncnc43)CC2OP2OC(c3ccccc3)C3CCCN32)(c2ccccc2)c2ccc(OC)cc2)cc1` [D-DNA A], the “Solubility over 24 hours in MeCN with addition of pyridine” value (“Solubility over 24 hours in MeCN” below) [1] is reported as “the solubility of the monomer is preserved” and the “Solubility after 24 hours in MeCN” value [1] is reported as “not soluble”.
In the case of `COc1ccc(C(OCC23COC(C(n4cnc5c(NC(=O)c6ccccc6)ncnc54)O2)C3OP2OC(c3ccccc3)C3CCCN32)(c2ccccc2)c2ccc(OC)cc2)cc1` [D-LNA A], the “Solubility over 24 hours in MeCN” value [1] is reported as “the solubility of the monomer is preserved” and the “Solubility after 24 hours in MeCN” value [1] is reported as “not soluble”.
In the case of `COc1ccc(C(OC[C@@]23CO[C@@H]([C@H](n4cnc5c(=O)[nH]c(NC(=O)C(C)C)nc54)O2)[C@@H]3O[P@]2O[C@H](c3ccccc3)[C@@H]3CCCN32)(c2ccccc2)c2ccc(OC)cc2)cc1` [L-LNA-G-iBu], the “Solubility in all solvents investigated” value ([1]; 12 different solvents) is reported as “soluble in all solvents investigated” and the “Soluble after: 24 h MeCN” value ([1]; 24 h, MeCN, 0.013 mmol amidite in 0.13 mL solvent, room temperature) is reported as “no”.
For `COc1ccc(C(OCC2OC(n3cnc4c(NC(=O)c5ccccc5)ncnc43)CC2OP2OC(c3ccccc3)C3CCCN32)(c2ccccc2)c2ccc(OC)cc2)cc1` [L-DNA A], the “Solubility over 24 hours in MeCN” value [1] was “kept in solution; also recorded: the solubility of the monomer is preserved” and the “Solubility after 24 hours in MeCN” value [1] was “not sufficient to keep the monomer in solution; also recorded: not soluble”.
With `COc1ccc(C(OCC23COC(C(n4cnc5c(NC(=O)c6ccccc6)ncnc54)O2)C3OP2OC(c3ccccc3)C3CCCN32)(c2ccccc2)c2ccc(OC)cc2)cc1` [L-LNA A] the Stability in solution ([2]; MeCN + Et3N (approximately 5-10 eq), after 24 hours) was “completely stable”, the Stability in solution ([2]; MeCN + Et3N (approximately 5-10 eq), after 48 hours) was “the majority of the L-LNA A is preserved” and the Stability in solution ([2]; MeCN only, after 24 hours, room temperature) was “most of the L-LNA A was degraded”. The Stability in solution ([2]; MeCN only, after 48 hours, room temperature) was “completely degraded”.
In the case of `COc1ccc(C(OCC23COC(C(n4cnc5c(=O)[nH]c(N=CN(C)C)nc54)O2)C3OP2OC(c3ccccc3)C3CCCN32)(c2ccccc2)c2ccc(OC)cc2)cc1` [L-LNA G-DMF], the Solubility in solvents ([1]; MeCN, MeCN:DCE, MeCN:Tol, MeCN:acetone, Dioxane, THF) is reported as “unsoluble”, the Solubility in solvents ([1]; MeCN:DCM, DMF, DMSO, NMP, DCM, DCE, Toluene) is reported as “soluble” and the “Solubility in acetonitrile solvents” value ([1]; acetonitrile solvents) is reported as “poorly soluble”. For the same compound, the “Amidite left after 24 hours” value ([2]; DCM (best solvent), 24 hours, room temperature) was 10% and the “Stability in the solvents where the monomer is soluble” value ([2]; MeCN:DCM, DMF, DMSO, NMP, DCM, DCE, Toluene, 24 hours) was “tremendous instability”.
